Assay: molar heat capacity at constant pressure
Settings: 101.33 kPa, Crystal, Vacuum adiabatic calorimetry

C=C(C)C(=O)[O][Sb]([O]C(=O)C(=C)C)([c]1ccccc1)([c]1ccccc1)[c]1ccccc1 [triphenyl-.lambda.5-stibanediyl bis(2-methylacrylate)]
Settings	molar heat capacity at constant pressure [J/K/mol]
5 K	2.01
5.69 K	2.9
6.38 K	4.02
7.1 K	5.41
7.71 K	6.68
8.27 K	7.96
8.8 K	9.25
9.02 K	9.78
9.38 K	10.7
9.91 K	12
10 K	12.3
10.45 K	13.4
10.84 K	14.3
11.3 K	15.5
11.73 K	16.5
12.1 K	17.4
13.05 K	19.9
13.67 K	21.6
14.66 K	24.5
15 K	25.4
15.64 K	27.4
16.62 K	30.16
17.59 K	33.15
18.52 K	36.15
19.07 K	37.69
19.58 K	39.2
20 K	40.48
21.68 K	45.73
24.61 K	55.52
25 K	56.85
26.89 K	62.82
28.78 K	68.55
30 K	72.23
31.21 K	75.9
31.81 K	78.04
33.66 K	83.66
33.76 K	84.46
35 K	88.24
36.21 K	92.11
38.67 K	99.54
40 K	103.4
41.14 K	106.6
43.6 K	113.8
45 K	117.5
46.06 K	120.5
48.52 K	127.2
50 K	131.7
50.62 K	133.3
52.35 K	138.3
56.62 K	149.3
57.11 K	150.1
59.23 K	155.6
60 K	157.4
61.69 K	161.4
64.15 K	167.4
66.61 K	173.5
68.65 K	178.9
70 K	181.9
70.8 K	183.9
73.27 K	189.7
75.28 K	193.9
77.44 K	199
79.9 K	204.6
80 K	204.8
82.19 K	210
84.03 K	214.2
84.36 K	214.5
86.03 K	217.9
86.44 K	219.2
88.12 K	222.6
88.53 K	223.9
90 K	226.3
90.24 K	227.1
90.62 K	227.4
92.99 K	232
95.37 K	236.4
97.74 K	240.6
100 K	245.1
100.11 K	245.2
102.48 K	250
104.85 K	254
107.22 K	258.4
109.45 K	262.8
110 K	263.4
111.82 K	266.7
114.3 K	271.1
116.58 K	275.1
118.96 K	279
120 K	280.8
121.34 K	283
123.72 K	286.8
126.1 K	290.5
128.48 K	294.9
130 K	297.4
130.59 K	298.4
132.7 K	302.2
135.08 K	306.4
139.6 K	313.7
140 K	314.6
141.3 K	316.8
143.4 K	321
145.22 K	324.6
147.6 K	328.9
149.99 K	333.6
150 K	333.6
152.36 K	347.2
154.75 K	352.6
157.14 K	362.4
159.53 K	372.2
160 K	372.6
161.92 K	369.5
164.34 K	355.3
166.76 K	356.4
169.15 K	360
170 K	361.2
171.6 K	363.4
173.9 K	366.7
175.85 K	369.5
178.25 K	372.5
180 K	375.2
180.65 K	376.2
183.05 K	379.6
184.24 K	380.9
187.35 K	385.8
190 K	389.6
190.9 K	391.1
194.06 K	395.5
197.17 K	400.2
200 K	404.7
200.73 K	406
204.87 K	412.6
209.58 K	420
210 K	420.5
214.29 K	427
218.98 K	434.2
220 K	436.3
223.67 K	442.1
228.35 K	449.1
230 K	451.7
232.58 K	456.1
236.01 K	461
240 K	466.6
240.06 K	466.4
244.71 K	473.3
249.36 K	480
250 K	481.2
252.66 K	484.9
256.66 K	491.7
260 K	496.3
261.29 K	497.9
265.91 K	505.5
270 K	511.1
270.5 K	511.7
275.08 K	518.7
277.79 K	522.4
280 K	525.9
281.19 K	527.2
284.56 K	532.8
287.93 K	538.8
290 K	541.9
291.28 K	544
294.6 K	550.2
297.91 K	555.7
298.15 K	555.9
300 K	559.1
301.2 K	561.8
304.48 K	566.7
307.74 K	572.1
310 K	576.3
310.99 K	577.4
314.22 K	583.3
317.43 K	588.2
320 K	592
320.63 K	592.8
323.81 K	597.8
327.25 K	602.8
330 K	607
330.43 K	607
332.9 K	611.4
334.78 K	614.7
340 K	621
350 K	635
360 K	649
370 K	664
380 K	679
390 K	694
400 K	709

— the NIST ThermoML archive (doi:10.1021/je200508x)
